Reference: patent publication US11123408B2, “Compositions and methods for treating nonsteroidal anti-inflammatory drug (NSAID) associated coagulopathy, thrombocytopenia, glanzmann's thrombasthenia, and/or thrombosis” (YALE UNIVERSITY, priority 2011, dated 2021)
“Also recorded” adds a separate entry of the source.

Key:
[1] = test system: platelets in platelet rich plasma; assay: Light transmission aggregometry (LTA) in platelet rich plasma; type: cell-based, human; conditions: for inhibition of NPP4/Ap3A-promoted platelet aggregation (qualitative): increasing antagonist concentrations; for platelet aggregation response of enzyme in the presence of 80 μM Ap3A (qualitative): enzyme 50-200 nM
Experimental: (§1) Whole blood from healthy voluntary donors was collected in accordance with an IRB-approved protocol into blue top vacutainer tubes containing 3.2% sodium citrate. Blood was centrifuged at 1000 RPM for 10 minutes at room temperature to collect platelet rich plasma (PRP). PRP in the supernatant was then transferred to fresh tubes, and the remainder of the specimen was centrifuged at 4000 RPM for 10 minutes to obtain platelet poor plasma (PPP). PRP was adjusted to a final platelet count of 250×10^6 platelets/mL with autologous PPP for use in aggregation studies. Potential donors were excluded if there was a history of a bleeding disorder or current anticoagulant use and donors were instructed to avoid NSAIDs for at least 7 days prior to donation. Approval for the human subjects involved in this research was sought and granted by the Committee for the Protection of Human Subjects, Dartmouth-Hitchcock Medical Center, where these studies were conducted in accordance with the Declaration of Helsinki.
(§2) Light transmission (i.e., optical) and lumi aggregometry were performed on up to four samples from the same individual simultaneously with a Chrono-Log Model 700 Whole Blood/Optical Lumi Aggregometer (Chrono-Log Corporation, Havertown, Pa.) using procedures provided by the manufacturer that are briefly summarized here.
(§3) Platelet aggregation was determined by measuring the change in light transmittance of stirred PRP over time after addition of various agonists. Prior to each experiment the aggregometer was standardized to reflect 100% and 0% light transmittance with PPP and PRP, respectively, from the donor whose platelets were used in each specific experiment. 500 μL PRP was added to cuvettes containing a magnetic stir bar and allowed to pre-warm to 37° C. in the aggregometer wells for 3 minutes prior to initiating aggregation reactions which were then conducted at 37° C. Aggregation reactions were initiated by direct addition of agonists and/or enzymes to warmed, stirred PRP, and were monitored for an increase in light transmittance for 10 minutes. The increase in light transmittance is directly proportional to the amount of aggregation and is amplified and digitized into a computer (HP Compaq, Hewlett-Packard, Palo Alto, Calif.) with the AGGRO/LINK8 for Windows software (Chrono-Log Corporation, Havertown, Pa.) to generate aggregation curves. […] The platelet aggregometry experiments for all concentrations of MRS 2395 (including the 0 μM point) were conducted with the plasma adjusted to a final concentration of 10% DMSO to solubilize the inhibitor.

[2] = test system: platelets in platelet rich plasma; assay: Lumi aggregometry (extracellular ATP, dense granule release) simultaneously with LTA; type: cell-based, human
Experimental: as §1, §2, §3
In a subgroup of experiments, lumi aggregometry was used to assay the levels of extracellular ATP simultaneously with LTA. Lumi aggregometry measures ATP in the extracellular space over time using a sensitive luminescent assay employing firefly luciferin-luciferase (CHRONO-LUME™ reagent, Chrono-Log Corporation, Havertown, Pa.). ATP binds to luciferin-luciferase and generates light that is then amplified by a high-gain photomultiplier tube in the lumi aggregometer and is measured simultaneously with the optical change in light transmittance caused by platelet aggregation. In experiments in which lumi aggregometry was performed, 450 μL of PRP was transferred to cuvettes containing magnetic stir bars and allowed to pre-warm to 37° C. in the aggregometer wells for 3 minutes. […] Reactions were initiated by the addition of agonists and/or enzymes to warmed PRP and CHRONOLUME′ reagent and were monitored for light generation. […]

[3] = Ap3A hydrolysis by NPP enzymes (linked malachite green assay, absorbance change at 259 nm, HPLC); type: biochemical; conditions: linked assay or steady state enzymatic studies
Experimental: (§4) NPP4 nucleotide substrates were identified by directly detecting the free phosphate (Pi) product using malachite green (ADP substrate) or by a linked hydrolysis assay with alkaline phosphatase combined with malachite green (lipid substrates and nucleotide substrates without terminal P1) to measure released Pi. 50 μM substrate P1 equivalents (e.g. 25 μM ADP) were treated with 50 nM NPP4 for 1 hr 37 min (lipids) or 3 hr 15 min (all other substrates). For substrates without terminal phosphates, 10 units of calf intestinal alkaline phosphatase (M0290S, 10,000 units/mL, New England Biolabs, Ipswich, Mass.) was added for a final reaction volume of 50 μL. 100 μL of malachite green (BIOMOL GREEN™, Enzo Life Sciences, Plymouth Meeting, Pa.) was added to quench the reactions. The amount of phosphate released was measured by absorbance at 620 nm by a Biotek Synergy Mx plate reader (Winooski, Vt.) in 96-well plates (3679, Corning Inc., Corning, N.Y.) and compared against a phosphate standard curve.
The kinetics of the steady state Ap3A/Ap4A cleavage by NPP4 was measured from time courses of absorbance change at 259 nm using a UV spectrophotometer with a 0.1 cm optical path length cuvette or a stopped-flow device with a 0.2 cm optical path length cell. The enzymology reactions in 50 mM Tris pH 8.0, 140 mM NaCl, 5 mM KCl, 1 mM MgCl2 and 1 mM CaCl2 were started by addition of 1 μM NPP4 to varying concentrations of Ap3A/Ap4A (up to 800 μM) solution (UV spectrophotometer) or by rapid mixing of NPP4 and Ap3A/Ap4A (stopped-flow). The substrate concentrations higher than 800 μM have absorption too high to be measured by a UV spectrophotometer and stopped-flow, and were therefore measured by HPLC. […] Therefore, the rate of a product production or enzyme turnover measured by the absorption change assay can be calculated by the rate of absorption change
[formula] according to the following formula;
[formula] where Δl is optical path length. The following absorption coefficients were used: Ap3A: 25.75 mM^−1 cm^−1. Ap4A: 25.4 mM^−1 cm^−1. AMP, ADP, and ATP: 15.4 mM^−1 cm^−1. ADP Receptor Inhibitor Assay for NPP4 Inhibition
The HPLC protocol used to measure Ap3A/Ap4A cleavage by NPP4 and for product identification is modified from that of Stocchi et al. (1985, Anal Biochem 146:118-24). The reactions containing varying concentrations of Ap3A/Ap4A in the same buffer as in the absorbance change assay were started by addition of 0.2-1 μM NPP4 and quenched at various time points by equal volume of 3 M formic acid, or 0.5 N KOH and re-acidified by glacial acetic acid to pH 6. The quenched reaction solution was diluted systematically and loaded a HPLC system (Waters, Milford Mass.) and substrates and products were monitored by UV absorbance at 254 or 259 nm. Substrates and products were separated on a C18, 5 μm 250×4.6 mm HPLC column (Higgins Analytical, Mountain View, Calif.), using 15 mM ammonium acetate pH 6.0 solution, with a 0% to 10% (or 20%) methanol gradient. The products and substrate were quantified according to the integration of their correspondent peaks and the formula:
[formula] where [substrate]0 is the initial substrate concentration. The extinction coefficients of Ap3A, Ap4A, AMP, ADP and ATP used in the formula were the same as those used in absorption change assay. If monitoring at 254 nm, substrate and product standards run on the same day as the reactions were used to convert integrated product/substrate peak areas to concentrations. […]

[4] = Diadenosine polyphosphate cleavage (linked assay, HPLC, absorbance); type: biochemical; conditions: HPLC or absorbance / real time spectrophotometric assay
Experimental: as §4, with “100 μL of malachite green (BIOMOL GREEN™, Enzo Life Sciences, Plymouth Meeting, Pa.) was added to quench the reactions.” left out
The kinetics of the steady state Ap3A/Ap4A cleavage by NPP4 was measured from time courses of absorbance change at 259 nm using a UV spectrophotometer with a 0.1 cm optical path length cuvette or a stopped-flow device with a 0.2 cm optical path length cell. […] The substrate concentrations higher than 800 μM have absorption too high to be measured by a UV spectrophotometer and stopped-flow, and were therefore measured by HPLC. […]

## diadenosine triphosphate [Ap3A]
[1]; 100 nM NPP4, dose response of Ap3A
  platelet aggregation response to Ap3A in the presence of 100 nM NPP4 (qualitative): induces both the primary and secondary waves of aggregation in a concentration-dependent fashion; also recorded: robust platelet aggregation
[1]; 40 μM Ap3A in the presence of 100 nM NPP4
  maximum aggregation: 70%
[1]; Ap3A 80 μM or higher in the presence of 100 nM NPP4
  maximum aggregation: greater than 80%
[1]; agent alone in PRP (Ap3A up to 160 μM; NPP4 100 nM)
  platelet aggregation response, agent alone (qualitative): triggers a primary wave of aggregation without degranulation, followed by rapid disaggregation; also recorded: only a primary wave of aggregation followed by rapid platelet disaggregation; also recorded: triggers a primary wave of aggregation, which is followed by rapid disaggregation
[2]; 40 μM Ap3A alone in PRP
  platelet aggregation and luminescence, Ap3A alone (qualitative): primary wave of aggregation, followed by rapid disaggregation

## CNc1ncnc2c1ncn2[C@H]1C[C@H](OP(=O)(O)O)[C@@H](COP(=O)(O)O)O1 [MRS 2179]
[1]; 50 nM NPP4, 80 μM Ap3A
  inhibition of NPP4/Ap3A-promoted platelet aggregation (qualitative): concentration-dependent inhibition of platelet aggregation; also recorded: dose-dependent inhibition of the platelet aggregation response

## Nc1ncnc2c1ncn2[C@@H]1O[C@H](COP(=O)(O)OP(=O)(O)OP(=O)(O)OP(=O)(O)OC[C@H]2O[C@@H](n3cnc4c(N)ncnc43)[C@H](O)[C@@H]2O)[C@@H](O)[C@H]1O [Ap4A]
[1]; 80 μM Ap4A added to 100 nM NPP4 and 80 μM Ap3A
  effect of Ap4A on Ap3A/NPP4-induced platelet aggregation: roughly half of the aggregation; also recorded: intermediate degree of platelet aggregation
[1]; 80 μM Ap4A alone or in the presence of 100 nM NPP4
  platelet aggregation response to Ap4A (qualitative): no apparent positive effect on aggregation; also recorded: does not trigger even a primary wave of aggregation
[2]; 40 μM Ap4A with 100 nM NPP4
  platelet aggregation and granule release, Ap4A with NPP4 (qualitative): no measurable platelet aggregation; also recorded: no platelet aggregation and no granule release

## CNc1nc(Cl)nc2c1ncn2CC(COC(=O)C(C)(C)C)COC(=O)C(C)(C)C [MRS 2395]
[1]; 50 nM NPP4, 80 μM Ap3A
  inhibition of NPP4/Ap3A-promoted platelet aggregation (qualitative): concentration-dependent inhibition of platelet aggregation; also recorded: dose-dependent inhibition of the platelet aggregation response
[1]; 200 μM antagonist, 50 nM NPP4, 80 μM Ap3A, 10% DMSO
  inhibition of NPP4/Ap3A-promoted platelet aggregation at 200 μM: complete inhibition

B1: NPP4-T70A: inactive mutant NPP4 extracellular domain, catalytic threonine 70 mutated to alanine (protein, UniProt Q9Y6X5 16-407, looked up, variant T70A)
extracellular domain: FRSDSSSSLPPKLLLVSFDGFRADYLKNYEFPHLQNFIKEGVLVEHVKNVFITKAFPNHYSIVTGLYEESHGIVANSMYDAVTKKHFSDSNDKDPFWWNEAVPIWVTNQLQENRSSAAAMWPGTDVPIHDTISSYFMNYNSSVSFEERLNNITMWLNNSNPPVTFATLYWEEPDASGHKYGPEDKENMSRVLKKIDDLIGDLVQRLKMLGLWENLNVIITSDHGMTQCSQDRLINLDSCIDHSYYTLIDLSPVAAILPKINRTEVYNKLKNCSPHMNVYLKEDIPNRFYYQHNDRIQPIILVADEGWTIVLNESSQKLGDHGYDNSLPSMHPFLAAHGPAFHKGYKHSTINIVDIYPMMCHILGLKPHPNNGTFGHTKCLLVDQWCINLPEA
modifications: extracellular domain
[1]
  platelet aggregation response of enzyme in the presence of 80 μM Ap3A (qualitative): fails to induce aggregation
[1]; listed as T70A mutant of NPP4
  platelet aggregation response of enzyme in the presence of 80 μM Ap3A (qualitative): no effect on platelet aggregation
[3]
  Ap3A cleavage / hydrolysis (qualitative): incapable of Ap3A hydrolysis
[2]; 100 nM enzyme with 40 μM Ap3A
  platelet aggregation and dense granule (ATP) release, enzyme with Ap3A (qualitative): A similar pattern is observed
[4]
  diadenosine polyphosphate cleavage (qualitative): did not cleave diadenosine polyphosphates
